The source of these data is patent publication US11192877B2, “3-(5-hydroxy-1-oxoisoindolin-2-yl)piperidine-2,6-dione derivatives and uses thereof” (Novartis AG, priority 2018, dated 2021).

Each structure is given as a SMILES string. Structures can show the parent of a compound that is named as a salt.

One experiment deals with IKZF2 (Helios) (Homo sapiens, UniProt Q96SW2+Q9UKS7). The experiment is described as follows: Prolabel quantification of IKZF2 protein levels in 293GT cells. Type of experiment: cell-based. The following applies: 24 h, Pro-label assay, 293GT cells, 10 μM, read-out: IKZF2 % protein reduction at 10 μM, 24 h.
Chain of IKZF2 (Helios) (Q9UKS7 whole entry): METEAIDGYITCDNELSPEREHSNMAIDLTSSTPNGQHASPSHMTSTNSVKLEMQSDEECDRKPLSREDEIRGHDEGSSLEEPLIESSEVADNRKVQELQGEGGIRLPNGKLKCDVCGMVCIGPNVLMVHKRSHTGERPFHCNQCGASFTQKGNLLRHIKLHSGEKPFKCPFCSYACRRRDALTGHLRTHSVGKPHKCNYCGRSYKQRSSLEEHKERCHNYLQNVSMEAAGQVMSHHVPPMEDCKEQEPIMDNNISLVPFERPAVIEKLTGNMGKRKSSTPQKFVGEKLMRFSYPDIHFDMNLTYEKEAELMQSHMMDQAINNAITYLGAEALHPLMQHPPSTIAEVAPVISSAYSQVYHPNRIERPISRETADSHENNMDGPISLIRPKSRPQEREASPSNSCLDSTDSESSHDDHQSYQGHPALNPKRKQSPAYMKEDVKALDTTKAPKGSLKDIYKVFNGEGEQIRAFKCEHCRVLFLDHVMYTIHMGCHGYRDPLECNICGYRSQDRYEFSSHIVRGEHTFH
Chain of IKZF2 (Helios) (Q96SW2 whole entry): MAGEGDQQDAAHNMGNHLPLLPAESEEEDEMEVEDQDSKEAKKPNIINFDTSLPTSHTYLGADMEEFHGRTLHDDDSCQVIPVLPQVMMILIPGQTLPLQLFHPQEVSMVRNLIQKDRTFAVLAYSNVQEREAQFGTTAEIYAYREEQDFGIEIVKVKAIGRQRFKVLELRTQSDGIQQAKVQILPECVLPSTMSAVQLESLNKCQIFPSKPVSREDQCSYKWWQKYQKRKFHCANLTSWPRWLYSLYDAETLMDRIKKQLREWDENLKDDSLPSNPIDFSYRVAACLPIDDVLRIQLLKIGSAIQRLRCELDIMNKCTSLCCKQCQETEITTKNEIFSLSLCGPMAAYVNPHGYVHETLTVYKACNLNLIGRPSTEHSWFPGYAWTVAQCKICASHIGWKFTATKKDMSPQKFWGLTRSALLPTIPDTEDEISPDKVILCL
Chain of IKZF2 (Helios) (Q16531 whole entry partner): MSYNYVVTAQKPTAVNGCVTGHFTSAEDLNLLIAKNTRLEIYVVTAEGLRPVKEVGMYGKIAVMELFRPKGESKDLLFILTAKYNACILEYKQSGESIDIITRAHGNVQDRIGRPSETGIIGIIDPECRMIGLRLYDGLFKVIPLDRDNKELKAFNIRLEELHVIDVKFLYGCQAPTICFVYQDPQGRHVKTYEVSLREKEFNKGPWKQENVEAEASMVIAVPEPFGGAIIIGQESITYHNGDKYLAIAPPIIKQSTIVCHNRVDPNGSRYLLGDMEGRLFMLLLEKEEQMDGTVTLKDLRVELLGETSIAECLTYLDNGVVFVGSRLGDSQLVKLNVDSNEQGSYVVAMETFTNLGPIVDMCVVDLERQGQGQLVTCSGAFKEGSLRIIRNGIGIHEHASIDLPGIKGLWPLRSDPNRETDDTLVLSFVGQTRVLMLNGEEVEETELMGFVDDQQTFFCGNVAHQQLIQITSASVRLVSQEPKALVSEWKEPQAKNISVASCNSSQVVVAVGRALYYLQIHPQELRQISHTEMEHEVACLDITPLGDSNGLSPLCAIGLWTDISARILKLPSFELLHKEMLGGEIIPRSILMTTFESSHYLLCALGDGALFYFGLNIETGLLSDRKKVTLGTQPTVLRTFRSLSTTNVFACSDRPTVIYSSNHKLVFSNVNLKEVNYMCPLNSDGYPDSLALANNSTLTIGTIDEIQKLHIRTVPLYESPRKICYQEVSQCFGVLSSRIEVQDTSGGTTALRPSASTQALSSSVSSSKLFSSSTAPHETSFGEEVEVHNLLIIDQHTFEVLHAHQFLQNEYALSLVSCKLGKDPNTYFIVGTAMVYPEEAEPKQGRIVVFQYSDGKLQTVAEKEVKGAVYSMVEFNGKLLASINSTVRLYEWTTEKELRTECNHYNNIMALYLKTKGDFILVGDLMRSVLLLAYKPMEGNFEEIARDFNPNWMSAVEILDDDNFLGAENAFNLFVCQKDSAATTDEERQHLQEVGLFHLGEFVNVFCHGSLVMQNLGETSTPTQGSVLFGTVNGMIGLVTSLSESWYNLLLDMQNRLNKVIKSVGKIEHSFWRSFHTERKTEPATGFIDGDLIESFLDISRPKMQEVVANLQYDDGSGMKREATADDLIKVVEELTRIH
Turning to `O=C1CCC(N2Cc3cc(O[C@H]4CCC[C@@H]4N4CCC5(CC4)OCCO5)ccc3C2=O)C(=O)N1` (stereo partly drawn) [I-17, 3-(5-(((1S,2S)-2-(1,4-dioxa-8-azaspiro[4.5]decan-8-yl)cyclopentyl)oxy)-1-oxoisoindolin-2-yl)piperidine-2,6-dione], the IKZF2 % protein reduction at 10 µM was 80%.

`O=C1CCC(N2Cc3cc(O[C@H]4CCC[C@@H]4N4CC5CCC(C4)O5)ccc3C2=O)C(=O)N1` (stereo partly drawn) [I-18, 3-(5-(((1S,2S)-2-(8-oxa-3-azabicyclo[3.2.1]octan-3-yl)cyclopentyl)oxy)-1-oxoisoindolin-2-yl)piperidine-2,6-dione]: the IKZF2 % protein reduction at 10 µM was 50%.

`O=C1CCC(N2Cc3cc(O[C@H]4CCC[C@@H]4NCc4ccccc4)ccc3C2=O)C(=O)N1` (stereo partly drawn) [I-20, 3-(5-(((1S,2S)-2-(benzylamino)cyclopentyl)oxy)-1-oxoisoindolin-2-yl)piperidine-2,6-dione]: the IKZF2 % protein reduction at 10 µM is 75%.

With `O=C1CCC(N2Cc3cc(O[C@H]4CCOC[C@@H]4NCc4ccccc4)ccc3C2=O)C(=O)N1` (stereo partly drawn) [I-21, 3-(5-(((3S,4S)-3-(benzylamino)tetrahydro-2H-pyran-4-yl)oxy)-1-oxoisoindolin-2-yl)piperidine-2,6-dione], the IKZF2 % protein reduction at 10 µM is 30%.

`O=C1CCC(N2Cc3cc(O[C@H]4CCCC[C@@H]4NCc4ccccc4)ccc3C2=O)C(=O)N1` (stereo partly drawn) [I-22, 3-(5-(((1S,2S)-2-(benzylamino)cyclohexyl)oxy)-1-oxoisoindolin-2-yl)piperidine-2,6-dione]: the IKZF2 % protein reduction at 10 µM turned out to be 80%.

With `C[C@@H](N[C@H]1CCCC[C@@H]1Oc1ccc2c(c1)CN(C1CCC(=O)NC1=O)C2=O)c1ccccc1` (stereo partly drawn) [I-23, 3-(1-oxo-5-(((1S,2S)-2-(((R)-1-phenylethyl)amino)cyclohexyl)oxy)isoindolin-2-yl)piperidine-2,6-dione], the IKZF2 % protein reduction at 10 µM came out at 80%.

As for `CCN(CCF)[C@H]1CCC[C@@H]1Oc1ccc2c(c1)CN(C1CCC(=O)NC1=O)C2=O` (stereo partly drawn) [I-24, 3-(5-(((1S,2S)-2-(ethyl(2-fluoroethyl)amino)cyclopentyl)oxy)-1-oxoisoindolin-2-yl)piperidine-2,6-dione], the IKZF2 % protein reduction at 10 µM is 80%.

As for `CCN(C(C)C)[C@H]1CCC[C@@H]1Oc1ccc2c(c1)CN(C1CCC(=O)NC1=O)C2=O` (stereo partly drawn) [I-25, 3-(5-(((1S,2S)-2-(ethyl(isopropyl)amino)cyclopentyl)oxy)-1-oxoisoindolin-2-yl)piperidine-2,6-dione], the IKZF2 % protein reduction at 10 µM came to 80%.

Regarding `CO[C@H]1CCC[C@@H]1Oc1ccc2c(c1)CN(C1CCC(=O)NC1=O)C2=O` (stereo partly drawn) [I-26, 3-(5-(((1S,2S)-2-methoxycyclopentyl)oxy)-1-oxoisoindolin-2-yl)piperidine-2,6-dione], the IKZF2 % protein reduction at 10 µM was 0%.

For `O=C1CCC(N2Cc3cc(O[C@H]4CCCC[C@@H]4O)ccc3C2=O)C(=O)N1` (stereo partly drawn) [I-27, 3-(5-(((1S,2S)-2-hydroxycyclohexyl)oxy)-1-oxoisoindolin-2-yl)piperidine-2,6-dione], the IKZF2 % protein reduction at 10 µM stood at 50%.

On to `CCN[C@H]1CCC[C@@H]1Oc1ccc2c(c1)CN(C1CCC(=O)NC1=O)C2=O` (stereo partly drawn) [I-29, 3-(5-(((1S,2S)-2-(ethylamino)cyclopentyl)oxy)-1-oxoisoindolin-2-yl)piperidine-2,6-dione], for which the IKZF2 % protein reduction at 10 µM was found to be 80%.

As for `N[C@@H]1CCCC[C@@H]1Oc1ccc2c(c1)CN(C1CCC(=O)NC1=O)C2=O` (stereo partly drawn) [I-30, 3-(5-(((1S,2R)-2-aminocyclohexyl)oxy)-1-oxoisoindolin-2-yl)piperidine-2,6-dione], the IKZF2 % protein reduction at 10 µM was found to be 0%.

For the compound `O=C1CCC(N2Cc3cc(O[C@H]4CCC[C@@H]4N(CC4CC4)CC4CC4)ccc3C2=O)C(=O)N1` (stereo partly drawn) [I-31, 3-(5-(((1S,2S)-2-(bis(cyclopropylmethyl)amino)cyclopentyl)oxy)-1-oxoisoindolin-2-yl)piperidine-2,6-dione], the IKZF2 % protein reduction at 10 µM stood at 90%.

As to `O=C1CCC(N2Cc3cc(O[C@H]4CCC[C@@H]4N4CCCCC4)ccc3C2=O)C(=O)N1` (stereo partly drawn) [I-32, 3-(1-oxo-5-(((1S,2S)-2-(piperidin-1-yl)cyclopentyl)oxy)isoindolin-2-yl)piperidine-2,6-dione], the IKZF2 % protein reduction at 10 µM was found to be 85%.

Regarding `O=C1CCC(N2Cc3cc(O[C@H]4CCC[C@@H]4N4CCOCC4)ccc3C2=O)C(=O)N1` (stereo partly drawn) [I-33, 3-(5-(((1S,2S)-2-morpholinocyclopentyl)oxy)-1-oxoisoindolin-2-yl)piperidine-2,6-dione], the IKZF2 % protein reduction at 10 µM came out at 55%.

For `O=C1CCC(N2Cc3cc(O[C@H]4CCCC[C@@H]4N(Cc4ccccc4)Cc4ccccc4)ccc3C2=O)C(=O)N1` (stereo partly drawn) [I-34, 3-(5-(((1S,2S)-2-(dibenzylamino)cyclohexyl)oxy)-1-oxoisoindolin-2-yl)piperidine-2,6-dione], the IKZF2 % protein reduction at 10 µM was found to be 0%.

As for `CCN(CC)[C@H]1CCCC[C@H]1Oc1ccc2c(c1)CN(C1CCC(=O)NC1=O)C2=O` (stereo partly drawn) [I-35, 3-(5-(((1R,2S)-2-(diethylamino)cyclohexyl)oxy)-1-oxoisoindolin-2-yl)piperidine-2,6-dione], the IKZF2 % protein reduction at 10 µM is 10%.

As to `CN[C@H]1CCCC[C@@H]1Oc1ccc2c(c1)CN(C1CCC(=O)NC1=O)C2=O` (stereo partly drawn) [I-36, 3-(5-(((1S,2S)-2-(methylamino)cyclohexyl)oxy)-1-oxoisoindolin-2-yl)piperidine-2,6-dione], the IKZF2 % protein reduction at 10 µM is 80%.

In the case of `CC1(C#N)CCN([C@H]2CCC[C@@H]2Oc2ccc3c(c2)CN(C2CCC(=O)NC2=O)C3=O)CC1` (stereo partly drawn) [I-38, 1-((1S,2S)-2-((2-(2,6-dioxopiperidin-3-yl)-1-oxoisoindolin-5-yl)oxy)cyclopentyl)-4-methylpiperidine-4-carbonitrile], the IKZF2 % protein reduction at 10 µM was found to be 86%.

Regarding `CN(Cc1ccccc1)[C@H]1CCCC[C@@H]1Oc1ccc2c(c1)CN(C1CCC(=O)NC1=O)C2=O` (stereo partly drawn) [I-39, 3-(5-(((1S,2S)-2-(benzyl(methyl)amino)cyclohexyl)oxy)-1-oxoisoindolin-2-yl)piperidine-2,6-dione], the IKZF2 % protein reduction at 10 µM is 57%.

With `CCN(CC)[C@@H]1CCC[C@H]1Oc1ccc2c(c1)CN(C1CCC(=O)NC1=O)C2=O` (stereo partly drawn) [I-43, 3-(5-(((1R,2R)-2-(diethylamino)cyclopentyl)oxy)-1-oxoisoindolin-2-yl)piperidine-2,6-dione], the IKZF2 % protein reduction at 10 µM is 0%.

For the compound `N[C@H]1COC[C@@H]1Oc1ccc2c(c1)CN(C1CCC(=O)NC1=O)C2=O` (stereo partly drawn) [I-46, 3-(5-(((3R,4S)-4-aminotetrahydrofuran-3-yl)oxy)-1-oxoisoindolin-2-yl)piperidine-2,6-dione], the IKZF2 % protein reduction at 10 µM is 0%.

Consider `CCN(CC)[C@H]1COC[C@@H]1Oc1ccc2c(c1)CN(C1CCC(=O)NC1=O)C2=O` (stereo partly drawn) [I-47, 3-(5-(((3R,4S)-4-(diethylamino)tetrahydrofuran-3-yl)oxy)-1-oxoisoindolin-2-yl)piperidine-2,6-dione], for which the IKZF2 % protein reduction at 10 µM is 11%.

Turning to `CCOC1CN([C@H]2CCCC[C@@H]2Oc2ccc3c(c2)CN(C2CCC(=O)NC2=O)C3=O)C1` (stereo partly drawn) [I-48, 3-(5-(((1S,2S)-2-(3-ethoxyazetidin-1-yl)cyclohexyl)oxy)-1-oxoisoindolin-2-yl)piperidine-2,6-dione], the IKZF2 % protein reduction at 10 µM stood at 89%.

Staying with this experiment, now noted: 24 h, read-out: IKZF2 % protein reduction at 10 μM, 24 h.
Regarding `N[C@@H]1CCC[C@@H]1Oc1ccc2c(c1)CN(C1CCC(=O)NC1=O)C2=O` (stereo partly drawn) [I-28, 3-(5-(((1S,2R)-2-aminocyclopentyl)oxy)-1-oxoisoindolin-2-yl)piperidine-2,6-dione hydrochloride], the IKZF2 % protein reduction at 10 µM was 0%.
